Legend:
[1] = tested on: glutamatergic synaptic vesicles (VGLUT1); experiment: Double labeling of isolated glutamatergic synaptic vesicles (VGLUT1 immunolabeling and fluorescent ligand); settings: FIG. 7; confocal and STED
Experimental: Tests were performed in order to check the compatibility of the novel fluorescent ligands of the invention and a labeling by immunohistochemistry. Indeed, ultimately, combining a labeling of VAChT by immunohistochemistry and of VGLUT3 by a fluorescent ligand would allow obtaining more information on the distribution of these vesicular transporters in the striatum.
FIG. 7 illustrates the glutamatergic vesicular labeling by immunohistochemistry and the fluorescent ligand referenced G02 according to the invention. In particular, isolated glutamatergic synaptic vesicles were double labeled by immunolabeling of VGLUT1 (in red) and the fluorescent ligand G02 (in green). The observations were carried out using confocal microscopy and STED. […] In order to more accurately analyze the spot colocalization, it seems more appropriate to use lower and therefore more separated concentrations of vesicles.

[2] = tested on: isolated rat cortex synaptic vesicles; experiment: Confocal and STED observation of isolated synaptic vesicles incubated with fluorescent ligand; settings: control wells
Experimental: In view of the preliminary results which are obtained, isolated synaptic vesicles are a model of choice in determining the distribution of the transporters VAChT and VGLUT3 at the vesicular level. The major pitfall in the use of this model is the absence of a protocol of use and results regarding their compatibility with super-resolution microscopy. First, the observability of fluorescent labeling in the vesicles was tested, as well as the effect of STED super-resolution microscopy on this model.
The different manipulations were carried out on rat or mouse synaptic vesicles, coming from the striatum or the cortex.
Material and methods: In a manner similar to vesicular reuptake tests, the fluorescent compounds to be studied are diluted in sucrose buffer (TPS 0.32 M) so as to obtain 10 μM of compound in the final observation medium. […]
Isolated rat cortex synaptic vesicles are then incubated in the presence of ATP and the fluorescent ligand G02 at 37 °C then are observed by confocal microscopy as well as super-resolution microscopy (STED). In order to ensure that the observed labeling corresponds to the fluorescent ligands accumulated on the surface or inside the vesicles, control wells were analyzed. No fluorescent signal is detected in wells containing only isolated vesicles (without fluorescent ligand), or only the fluorescent compound (without vesicles).

## Nc1ccc(-c2ccc(C#Cc3cc4cc(C(=O)O)c(=O)oc4cc3O)cc2)cc1 [LSP17-1173, 6-((4′-amino-[1,1′-biphenyl]-4-yl)ethynyl)-7-hydroxy-2-oxo-2H-chromene-3-carboxylic Acid]
[1]
  double labeling spots (compatibility with immunohistochemistry): The obtained spots are clear and resolved
[2]
  precipitation in observation medium: does not precipitate in the observation medium

Source: US20260374750A1, “LIGANDS SPECIFICALLY TARGETING VESICULAR GLUTAMATE TRANSPORTERS FOR SUPER-RESOLUTION IMAGING” (SORBONNE UNIVERSITÉ, priority 2021, published 2026)
